Reference: patent publication US20120028284A1, “TRAPPING COMPOUNDS AND METHOD FOR IDENTIFYING REACTIVE METABOLITES” (EISAI R&D MANAGEMENT CO., LTD., priority 2009, published 2012)

Assays:
[1] = tested on: human liver microsomal preparations (cytochrome P450 enzyme preparations); experiment: Trapping of "soft" and "hard" reactive metabolites in microsomal incubations with compound of formula (I), neutral loss LC-MS/MS; format: in vitro ADME; details: 50 μM test compound, 2 mg/ml microsomal proteins, 3 mM NADPH, 37° C.; for adducts of reactive metabolites with ECHK detected: trapping agent ECHK 1 mM; for adducts of reactive metabolites with ECHK detected / adducts of reactive metabolites with EHCK detected: neutral loss scanning of 129 Da; for adducts of reactive metabolites with ECO detected: trapping agent ECO 1 mM, neutral loss scanning of 129 Da or 147 Da; for adducts of reactive metabolites with EHCK detected: trapping agent EHCK 1 mM
Experimental: All microsomal incubations described herein were performed at 37° C. in a water bath or on a heat block. The test compound was mixed with human liver microsomal preparations (cytochrome P450 enzyme preparations) in 100 mM potassium phosphate buffer (pH7.4) including 0.1 mM EDTA and the compound of formula (I). The resulting mixtures were pre-warmed at 37° C. for 5 min. To the reaction mixtures was then added the co-factor-NADPH (to initiate the reaction) to yield a final volume of 500 μl.
The resulting reaction mixtures contained 50 μM test compounds, 2 mg/ml microsomal proteins, 1 mM mixture of compound of formula (I) and 3 mM NADPH.
After 15 or 60 min incubation, the reactions were terminated by the addition of 1000 μl of 50% methanol/50% acetonitrile. The resulting mixtures were centrifuged at 10,000 g for 10 min at 4° C. to pellet the precipitated protein, and the supernatants were dried up. The resulting residue was solubilized with 50% methanol.
(§1) MS analyses were performed on an LTQ Orbitrap FTMS (Thermo Fisher Scientific, Inc., Bremen, Germany). The ESI ion source was operated in the positive ion mode. The entire eluent was sprayed into the mass spectrometer at +5 kV and desolvation of the solvent droplets was further aided by a heated capillary temperature of 350° C. Mass spectra collected in the neutral loss scanning mode were obtained by scanning over the range m/z 200-1100 at 30000 resolution.
For complete profiling of reactive metabolites, samples were first subjected to chromatographic separations with a Prominence LC system with an auto-sampler (Shimadzu Corp., Kyoto, Japan) and eluents were introduced to the LTQ Orbitrap FTMS operated in the neutral loss scanning mode. An L-column ODS (Octadecylsilyl-silica gels; 2.1×150 mm, Chemicals Evaluation and Research Institute, Tokyo, Japan) was used for the chromatographic separation. The chromatographic system used a binary solvent system delivered as a gradient of solvent A (5 mM ammonium acetate) and solvent B (95% acetonitrile included 5 mM ammonium acetate). […] The solvent composition was then held at 100% B for 8 min before re-equilibration at initial conditions. LC-MS/MS analyses were carried out on 20 μl aliquots of cleaned samples. Data acquisition was carried out using the Xcaliber version 2.0 software (Thermo Fisher Scientific, Inc., Bremen, Germany).

[2] = Trapping of acylglucuronides by incubation with compound of formula (I) in buffer, neutral loss LC-MS/MS; details: 100 μM diclofenac acylglucuronide, pH7.4 buffer, 60 min, 37° C.
Experimental: The resulting mixtures were pre-warmed at 37° C. for 5 min.
as §1
For complete profiling of reactive metabolites, samples were first subjected to chromatographic separations with a Prominence LC system with an auto-sampler (Shimadzu Corp., Kyoto, Japan) and eluents were introduced to the LTQ Orbitrap FTMS operated in the neutral loss scanning mode. […] The solvent composition was then held at 100% B for 8 min before re-equilibration at initial conditions. […] Data acquisition was carried out using the Xcaliber version 2.0 software (Thermo Fisher Scientific, Inc., Bremen, Germany).

adducts of reactive metabolites with ECHK detected [1]	adducts of reactive metabolites with ECO detected [1]	adducts of reactive metabolites with EHCK detected [1]	SMILES	adduct of acylglucuronide with ECHK detected ([2]; trapping agent ECHK 1 mM, neutral loss scanning of 129 Da)	adduct of acylglucuronide with ECO detected ([2]; trapping agent ECO 1 mM, neutral loss scanning of 129 Da and 147 Da)	adduct of acylglucuronide with EHCK detected ([2]; trapping agent EHCK 1 mM, neutral loss scanning of 129 Da)
three adducts	three adducts	three adducts	c1coc(-c2cccs2)c1 [2-[2-thienyl]-furan, 2-[2-Thienyl]-furan]			
			O=C(Cc1ccccc1Nc1c(Cl)cccc1Cl)O[C@@H]1O[C@H](C(=O)O)[C@@H](O)[C@H](O)[C@H]1O [diclofenac acylglucuronide, Diclofenac acylglucuronide]	adduct of diclofenac acylglucuronide with ECHK which was detected	adduct of diclofenac acylglucuronide with ECO which was detected	adduct of diclofenac acylglucuronide with EHCK which was detected
two adducts	two adducts	two adducts	O=C(O)Cc1ccccc1Nc1c(Cl)cccc1Cl [diclofenac, Diclofenac]			
